Source: patent publication US11779618B2, “Treatment of topical and systemic bacterial infections” (priority 2014, dated 2023)

Tested on: S. aureus 8588
Assay: Effectiveness against S. aureus 8588 (absorbance, Mueller-Hinton broth)
Assay type: cell-based
Conditions: 0.01 mg/ml ampicillin (below MIC)
Source text: The absorbance readings of treatments above the MIC were similar to the negative control of Mueller-Hinton broth alone indicating no bacterial growth.
The absorbance readings of the phage K treated wells were similar to the negative control Mueller-Hinton broth alone.

CC1(C)S[C@@H]2[C@H](NC(=O)[C@H](N)c3ccccc3)C(=O)N2[C@H]1C(=O)O [ampicillin]
effect on bacterial growth: has some effect on bacterial growth but is not totally effective
